{"source": "patent US20250296961A1", "about": "“ANTIMICROBIAL PEPTIDES FOR REMINERALIZATION OF TEETH AND PREVENTION OF DENTAL CARIES” (The University of Hong Kong, priority 2021, published 2025)", "key": {"[1]": {"assay": "Remineralization assay of peptide-coated enamel (Example 1)", "design": "species or system human", "details": "8 μmol/mL coating, remineralization solution 24 h, FE-SEM", "procedure": "(§1) 3×3×1.5 mm^3 (number: 197) tooth slices were prepared using a water-cooled diamond saw (IsoMet low-speed saw, Buehler, Lake Bluff, IL, USA). One working surface of complete enamel tissue from each tooth slice was generated using the MicroCT Skyscan 1172 (Bruker MicroCT, Kontich, Belgium). The enamel working side of the tooth slice was polished and other sides marked with acid-proof nail polish. All tooth slices were cleaned and stored in deionized water at 4° C.\nThe enamel working surface of tooth slices (N=30) was acid-etched in 37% phosphoric acid for 1 min and rinsed with deionized water for 1 min. The slices were immersed in 8 μmol/mL P-113, P-113-DPS, P-113-DA, P-113-SK, Sp-H5 (n=5 for each) solutions (in 10 mM HEPES) or HEPES (control) overnight. All tooth slices were incubated in 7 mL remineralization solution (2.58 mM CaCl2)·2H2O, 1.55 mM KH2PO4, 10 mg/L NaF, 180 mM NaCl, 50 mM Tris-HCl, pH 7.6) for 24 h. The enamel surface and cross-section morphology were analyzed by FE-SEM (Hitachi, S4800). Ca/P concentrations in the solutions before and after immersion were calculated by ICP-OES. The mean values for Ca/P gain were analyzed using ANOVA at the 1‰ significance level."}, "[2]": {"assay": "Adsorption time assay on tooth enamel (Micro BCA)", "assay_type": "binding, human", "details": "10 nmol/mL peptide, 37° C.", "procedure": "as §1\nAdsorption Time Assay The adsorption time of peptides to the tooth enamel was also tested using the Micro BCA method. Solutions of P-113, P-113-DPS, P-113-DA, and P-113-SK in 10 mM HEPES buffer (pH 7) were diluted to 10 nmol/mL. Enamel working surfaces of tooth slices (N=20) were exposed to P-113 solution (n=5), P-113-DPS solution (n=5), P-113-DA solution (n=5), and P-113-SK solution (n=5), respectively. The remaining extraneous surfaces were covered with wax. Tubes were placed into a rotator at 37° C. […] After a 30-min incubation, absorbance was measured. A function of C=a*A+b was determined (a and b are constants). The concentrations of the peptide solution at different time points (C0, C1, C2, C3, C4, and C5 at 0, 5, 20, 40, 60, and 120 min, respectively) were computed based on absorbances […]."}, "[3]": {"assay": "Demineralization assay of peptide-coated enamel (Example 1)", "design": "species or system human", "details": "demineralization solution 7 days", "procedure": "as §1\nTooth slices (N=30) were immersed in 8 μmol/mL P-113, P-113-DPS, P-113-DA, P-113-SK, Sp-H5 (n=5 for each) solutions (in 10 mM HEPES) or HEPES (control) overnight. Tooth slices were incubated in 2 mL demineralization solution (2.2 mM CaCl2), 2.2 mM NaH2PO4, 0.05 M acetic acid, pH 4.5) for 7 days at 37° C. Lesions depths were analyzed by MicroCT Skyscan 1172. Mineral calcium (Ca) or phosphorus (P) concentrations before and after immersion were measured using Inductively Coupled Plasma Optical Emission Spectrometer (ICP-OES; Spectro Arcos, Kleve, Germany). Ca/P loss was expressed as mM/cm^2. The mean values of Ca/P loss were analyzed for each group using ANOVA at the 1% c significance level."}}}
{"sequence": "AKRHHGYKRKFH [Peptide P-113, non-specific AMP, portion of human histatin 5]", "values": [{"measurement": "Thickness of the regenerated crystal layer on the enamel surface", "setting": "[1]", "value": 6, "unit": "μm"}, {"measurement": "Adsorption time on enamel (majority of adsorption / significant decrease in concentration)", "setting": "[2]", "value": 60, "unit": "min"}, {"measurement": "Maximum lesion depth", "setting": "[3]; 8 μmol/mL coating, MicroCT", "value": 115, "unit": "μm"}, {"measurement": "Ca losses vs control group", "setting": "[3]", "value": "Significant differences were not detected"}]}
